Laboratory results as given in PubChem BioAssay (NCI).
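Five compound concentrations were applied to cells in 96-well plates for 48 hours; endpoints were derived by simple linear interpolation of the resulting dose-response curve. At the GI50, growth is halved. TGI: total growth inhibition.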

Columns and labels:
Test in all cases: NCI tumour cell line growth inhibition, 48 h
SF-295 CNS = system: SF-295 CNS
786-0 renal = system: 786-0 renal
RPMI-8226 leukemia = system: RPMI-8226 leukemia
RXF 393 renal = system: RXF 393 renal
OVCAR-8 ovarian = system: OVCAR-8 ovarian
A549 NSCLC = system: A549 NSCLC
A498 renal = system: A498 renal
LOX IMVI melanoma = system: LOX IMVI melanoma
HCT-15 colon = system: HCT-15 colon
COLO 205 colon = system: COLO 205 colon
HCC-2998 colon = system: HCC-2998 colon
SN12C renal = system: SN12C renal
MCF7 breast = system: MCF7 breast
MDA-MB-231 breast = system: MDA-MB-231 breast
DU-145 prostate = system: DU-145 prostate
SNB-75 CNS = system: SNB-75 CNS
ACHN renal = system: ACHN renal
UO-31 renal = system: UO-31 renal
BT-549 breast = system: BT-549 breast
HOP-92 NSCLC = system: HOP-92 NSCLC
CAKI-1 renal = system: CAKI-1 renal
SW-620 colon = system: SW-620 colon
UACC-62 melanoma = system: UACC-62 melanoma
NCI-H460 lung = system: NCI-H460 lung
SK-MEL-5 melanoma = system: SK-MEL-5 melanoma
OVCAR-4 ovarian = system: OVCAR-4 ovarian
HT29 colon = system: HT29 colon
MDA-MB-435 = system: MDA-MB-435
U251 CNS = system: U251 CNS

Question: With Nc1ncc(-c2ccc3ncnc(N4CCc5cc(F)c(Cl)cc54)c3c2)cc1CO as the molecule, how does the GI50 (SF-295 CNS) read?
Answer: 453 nM

Question: And the TGI (SF-295 CNS)?
Answer: 3170 nM

Question: And the GI50 (786-0 renal)?
Answer: 474 nM

Question: What about the TGI (786-0 renal) of the same molecule?
Answer: 5000 nM

Question: What about the GI50 (RPMI-8226 leukemia) of the same molecule?
Answer: 395 nM

Question: And the TGI (RPMI-8226 leukemia)?
Answer: 3720 nM

Question: What about the GI50 (RXF 393 renal) of the same molecule?
Answer: 318 nM

Question: And the TGI (RXF 393 renal)?
Answer: 1170 nM

Question: What about the GI50 (OVCAR-8 ovarian) of the same molecule?
Answer: 883 nM

Question: What about the TGI (OVCAR-8 ovarian) of the same molecule?
Answer: 10400 nM

Question: And the GI50 (A549 NSCLC)?
Answer: 522 nM

Question: And the TGI (A549 NSCLC)?
Answer: 3210 nM

Question: And the GI50 (A498 renal)?
Answer: 110 nM

Question: What about the TGI (A498 renal) of the same molecule?
Answer: 611 nM

Question: And the GI50 (LOX IMVI melanoma)?
Answer: 747 nM

Question: What about the TGI (LOX IMVI melanoma) of the same molecule?
Answer: 3940 nM

Question: And the GI50 (HCT-15 colon)?
Answer: 798 nM

Question: What about the TGI (HCT-15 colon) of the same molecule?
Answer: 5250 nM

Question: What about the GI50 (COLO 205 colon) of the same molecule?
Answer: 1170 nM

Question: And the TGI (COLO 205 colon)?
Answer: 2820 nM

Question: And the GI50 (HCC-2998 colon)?
Answer: 1200 nM

Question: What about the TGI (HCC-2998 colon) of the same molecule?
Answer: 5120 nM

Question: And the GI50 (SN12C renal)?
Answer: 435 nM

Question: And the TGI (SN12C renal)?
Answer: 11200 nM

Question: What about the GI50 (MCF7 breast) of the same molecule?
Answer: 210 nM

Question: And the TGI (MCF7 breast)?
Answer: 2520 nM

Question: And the GI50 (MDA-MB-231 breast)?
Answer: 697 nM

Question: What about the TGI (MDA-MB-231 breast) of the same molecule?
Answer: 6540 nM

Question: What about the GI50 (DU-145 prostate) of the same molecule?
Answer: 619 nM

Question: What about the TGI (DU-145 prostate) of the same molecule?
Answer: > 41800 nM

Question: What about the GI50 (SNB-75 CNS) of the same molecule?
Answer: 50.6 nM

Question: What about the TGI (SNB-75 CNS) of the same molecule?
Answer: 1110 nM

Question: And the GI50 (ACHN renal)?
Answer: 365 nM

Question: What about the TGI (ACHN renal) of the same molecule?
Answer: 20500 nM

Question: What about the GI50 (UO-31 renal) of the same molecule?
Answer: 154 nM

Question: What about the TGI (UO-31 renal) of the same molecule?
Answer: 5000 nM

Question: And the GI50 (BT-549 breast)?
Answer: 321 nM

Question: And the TGI (BT-549 breast)?
Answer: 2050 nM

Question: And the GI50 (HOP-92 NSCLC)?
Answer: 115 nM

Question: And the TGI (HOP-92 NSCLC)?
Answer: 1530 nM

Question: And the GI50 (CAKI-1 renal)?
Answer: 282 nM

Question: And the TGI (CAKI-1 renal)?
Answer: 3760 nM

Question: And the GI50 (SW-620 colon)?
Answer: 1640 nM

Question: And the TGI (SW-620 colon)?
Answer: 9480 nM

Question: What about the GI50 (UACC-62 melanoma) of the same molecule?
Answer: 266 nM

Question: And the TGI (UACC-62 melanoma)?
Answer: 1610 nM

Question: And the GI50 (NCI-H460 lung)?
Answer: 413 nM

Question: What about the TGI (NCI-H460 lung) of the same molecule?
Answer: 3560 nM

Question: What about the GI50 (SK-MEL-5 melanoma) of the same molecule?
Answer: 838 nM

Question: What about the TGI (SK-MEL-5 melanoma) of the same molecule?
Answer: 2200 nM

Question: And the GI50 (OVCAR-4 ovarian)?
Answer: 615 nM

Question: What about the TGI (OVCAR-4 ovarian) of the same molecule?
Answer: 5230 nM

Question: And the GI50 (HT29 colon)?
Answer: 950 nM

Question: What about the TGI (HT29 colon) of the same molecule?
Answer: 10200 nM

Question: And the GI50 (MDA-MB-435)?
Answer: 418 nM

Question: And the TGI (MDA-MB-435)?
Answer: 1990 nM

Question: And the GI50 (U251 CNS)?
Answer: 1430 nM

Question: What about the TGI (U251 CNS) of the same molecule?
Answer: 7950 nM
